Data taken from patent EP0760376A1, “PEPTIDES INHIBITING PHOSPHOLIPASE C” (Kyowa Hakko Kogyo Co., Ltd., priority 1995, dated 1996).
Converted amounts (≈) assume the structure as drawn. Square brackets hold non-standard residues; d marks the D form. Peptide text beside a SMILES is read from it. * marks the point of attachment. Stearoyl = CCCCCCCCCCCCCCCCCC(=O)*; 12Ado = NCCCCCCCCCCCC(=O)O; Aoc = NCCCCCCCC(=O)O; Ahp = NCCCCCCC(=O)O; Ahx = NCCCCCC(=O)O; Ava = NCCCCC(=O)O; GABA = NCCCC(=O)O

Key:
PLC-γ1 = target: T1, PLC-γ1 (Bos taurus, UniProt P08487); assay: PLC-inhibiting activity (release of [3H]inositol phosphate from [3H]PIP2); assay type: biochemical, bovine; details: 37°C, 10 minutes, pH 6.0, read-out: Inhibition rate (%)
T1 construct: A sample of PLC-γ1 was prepared from bovine thymus; from tissue; host or cells: bovine thymus
T1 sequence (P08487 1-1291): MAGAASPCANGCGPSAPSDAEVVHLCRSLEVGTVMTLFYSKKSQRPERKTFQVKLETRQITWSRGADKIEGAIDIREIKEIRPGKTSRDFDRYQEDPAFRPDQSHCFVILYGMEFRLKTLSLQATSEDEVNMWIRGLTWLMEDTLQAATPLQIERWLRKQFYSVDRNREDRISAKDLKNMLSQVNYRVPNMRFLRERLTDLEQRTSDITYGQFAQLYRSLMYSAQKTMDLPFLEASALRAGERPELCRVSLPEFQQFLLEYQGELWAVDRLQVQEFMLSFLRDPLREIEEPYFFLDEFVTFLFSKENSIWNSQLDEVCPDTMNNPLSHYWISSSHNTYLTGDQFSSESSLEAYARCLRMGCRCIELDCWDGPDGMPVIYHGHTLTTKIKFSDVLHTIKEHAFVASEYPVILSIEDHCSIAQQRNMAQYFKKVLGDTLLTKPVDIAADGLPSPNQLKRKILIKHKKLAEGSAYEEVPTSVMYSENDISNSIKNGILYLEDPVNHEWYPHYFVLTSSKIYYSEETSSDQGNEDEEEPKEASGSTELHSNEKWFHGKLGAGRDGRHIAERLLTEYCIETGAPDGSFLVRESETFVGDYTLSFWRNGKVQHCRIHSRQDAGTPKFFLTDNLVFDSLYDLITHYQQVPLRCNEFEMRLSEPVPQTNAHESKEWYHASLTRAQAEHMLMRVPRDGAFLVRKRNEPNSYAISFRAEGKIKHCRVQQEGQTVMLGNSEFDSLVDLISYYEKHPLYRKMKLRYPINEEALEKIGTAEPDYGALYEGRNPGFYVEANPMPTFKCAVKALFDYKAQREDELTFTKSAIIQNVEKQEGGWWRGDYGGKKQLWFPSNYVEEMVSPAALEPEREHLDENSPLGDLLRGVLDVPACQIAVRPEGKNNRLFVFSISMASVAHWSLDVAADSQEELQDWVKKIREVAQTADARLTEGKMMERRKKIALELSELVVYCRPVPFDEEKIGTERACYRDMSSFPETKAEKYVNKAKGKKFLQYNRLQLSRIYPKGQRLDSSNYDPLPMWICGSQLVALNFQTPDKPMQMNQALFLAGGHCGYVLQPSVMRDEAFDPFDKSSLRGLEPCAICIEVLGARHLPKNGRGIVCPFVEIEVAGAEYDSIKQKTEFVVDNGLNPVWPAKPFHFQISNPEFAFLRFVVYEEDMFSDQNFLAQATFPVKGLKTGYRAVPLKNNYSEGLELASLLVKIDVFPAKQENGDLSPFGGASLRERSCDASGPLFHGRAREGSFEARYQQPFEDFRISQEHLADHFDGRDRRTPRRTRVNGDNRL
Experimental: A sample of PLC-γ1 was prepared from bovine thymus according to the method described in Y. Honma et al., Biochem. J., 269, 13 (1990). A solution having the composition shown in Table 2 below was prepared on ice and was heated to 37°C to start reaction. After incubation for 10 minutes, 2 ml of a chloroform/methanol mixture (2:1, v/v) was added thereto to stop the reaction. The resulting inositol phosphate was extracted with 0.5 ml of 1 N hydrochloric acid. The extract was separated into two liquid phases by centrifugation (2000 x g, 3 minutes), and the amount of ^3H contained in the supernatant (0.7 ml) was measured with a scintillation counter. Table 2 [table] The inhibition rate (X) was calculated according to the following equation: X (%) = (A-C) / (B-C) x 100 [formula] where A is the obtained value of specific radioactivity, B is the value of specific radioactivity obtained when the same amount of water was added instead of the aqueous solution of the test peptide, and C is the value of specific radioactivity obtained when the same amount of water was added instead of the sample and the aqueous solution of the test peptide.

KMS-4 cells = assay: Cell growth-inhibiting activity (BrdU incorporation, cell growth detection kit); assay type: cell-based; details: culturing with peptide for 17 hours
Experimental: The cell growth-inhibiting activity was determined using a cell growth detection kit (Amersham) in the following manner. KMS-4 cells [M. Nanba et al, International Journal of Cancer, 32, 697 (1983)] were suspended in DMEM medium (Nissui Pharmaceutical Co., Ltd.) containing 10% fetal calf serum at a density of 1-2 x 10^4 cells/ml, and 1 ml of the cell suspension was put into each well of a 24-well plate (Corning Inc.). The cells were cultured in a CO2 incubator (37°C, 5% CO2) for 2 days. Then, the medium was replaced with a fresh DMEM medium containing 10% fetal calf serum, and the test peptide was added thereto, followed by culturing for 17 hours. The medium was replaced with a serum-free DMEM medium, and 0.5 ml of a solution prepared by diluting labeled reagent 5-bromo-2'-deoxyuridine (BrdU) and 5-fluoro-2'-deoxyuridine (FdU) (10:1) 1000-fold with the same medium was added to each well, followed by culturing for 2 hours. Then the medium was removed, and the cells were immobilized with an acetic acid/ethanol solution. The immobilized cells were stained according to the method for the cell growth detection kit of Amersham, and then further stained with a 1% Giemsa solution (Merck & Co., Inc.). The number of cells which incorporated BrdU and the total number of cells within one field of vision of a microscope (approximately 200 cells) were determined, and the proportion (%) of stained cells per field of vision was calculated. The above procedure was repeated 10 times, and the average value thereof was defined as the cell growth activity (%). The cell growth-inhibiting activity was calculated in the following manner. That is, the cell growth inhibition rate was calculated according to the following equation: X (%) = (1-B/A) x 100 [formula] where A is the growth activity when no peptide was added, and B is the growth activity when the test peptide was added.

[1] = test system: Proteus vulgaris ATCC 6897; assay type: cell-based; details: ATCC 6897, pH 7
Experimental: (§1) The antibacterial activity was determined by the agar dilution method using a medium (pH 7.0) which comprises 3 g/l Bacto-tryptone (Difco Laboratories), 1 g/l meat extract, 1 g/l glucose and 16 g/l agar.

[2] = test system: Pseudomonas aeruginosa Bin H No. 1; assay type: cell-based; details: Bin H No. 1, pH 7
Experimental: as §1

[3] = test system: Bacillus subtilis No. 10707; assay type: cell-based; details: No. 10707, pH 7
Experimental: as §1

SMILES	Inhibition rate (%) (KMS-4 cells; Concentration 1 µM)	MIC (µg/ml) PV [1] [µg/mL]	MIC (µg/ml) PA [2] [µg/mL]	MIC (µg/ml) BS [3] [µg/mL]	other results
CSCC[C@H](NC(=O)[C@H](CCCCN)NC(=O)[C@H](CCCNC(=N)N)NC(=O)[C@H](Cc1ccc(O)cc1)NC(=O)[C@H](CC(C)C)NC(C)=O)C(=O)N[C@@H](CCCNC(=N)N)C(=O)N[C@@H](CC(C)C)C(=O)N[C@@H](CCCNC(=N)N)C(=O)N[C@@H](Cc1ccc(O)cc1)C(=O)N1CCC[C@H]1C(=O)N[C@H](C(=O)NCCCC(N)=O)C(C)C [Compound (I-1), CH3CO-Leu-Tyr-Arg-Lys-Met-Arg-Leu-Arg-Tyr-Pro-Val-NH-(CH2)3CONH2] (Ac-LYRKMRLRYPV[GABA]-NH2)	10	83 (≈ 51.2 µM)	167 (≈ 103 µM)	167 (≈ 103 µM)	inhibition at 123 µM (PLC-γ1; Concentration 123 µM (aqueous solution of test peptide provided for the test)): 85%
CSCC[C@H](NC(=O)[C@H](CCCCN)NC(=O)[C@H](CCCNC(=N)N)NC(=O)[C@H](Cc1ccc(O)cc1)NC(=O)[C@H](CC(C)C)NC(C)=O)C(=O)N[C@@H](CCCNC(=N)N)C(=O)N[C@@H](CC(C)C)C(=O)N[C@@H](CCCNC(=N)N)C(=O)N[C@@H](Cc1ccc(O)cc1)C(=O)N1CCC[C@H]1C(=O)N[C@H](C(=O)NCCCCC(N)=O)C(C)C [Compound (I-2), CH3CO-Leu-Tyr-Arg-Lys-Met-Arg-Leu-Arg-Tyr-Pro-Val-NH-(CH2)4CONH2] (Ac-LYRKMRLRYPV[Ava]-NH2)	68	77 (≈ 47.1 µM)	77 (≈ 47.1 µM)	77 (≈ 47.1 µM)	inhibition at 122 µM (PLC-γ1; Concentration 122 µM (aqueous solution of test peptide provided for the test)): 75%
CSCC[C@H](NC(=O)[C@H](CCCCN)NC(=O)[C@H](CCCNC(=N)N)NC(=O)[C@H](Cc1ccc(O)cc1)NC(=O)[C@H](CC(C)C)NC(C)=O)C(=O)N[C@@H](CCCNC(=N)N)C(=O)N[C@@H](CC(C)C)C(=O)N[C@@H](CCCNC(=N)N)C(=O)N[C@@H](Cc1ccc(O)cc1)C(=O)N1CCC[C@H]1C(=O)N[C@H](C(=O)NCCCCCC(N)=O)C(C)C [Compound (I-3), CH3CO-Leu-Tyr-Arg-Lys-Met-Arg-Leu-Arg-Tyr-Pro-Val-NH-(CH2)5CONH2] (Ac-LYRKMRLRYPV[Ahx]-NH2)		175 (≈ 106 µM)	175 (≈ 106 µM)	88 (≈ 53.4 µM)	inhibition at 121 µM (PLC-γ1; Concentration 121 µM (aqueous solution of test peptide provided for the test)): 77%; Inhibition rate (%) (KMS-4 cells; Concentration 6 µM): 53%
CSCC[C@H](NC(=O)[C@H](CCCCN)NC(=O)[C@H](CCCNC(=N)N)NC(=O)[C@H](Cc1ccc(O)cc1)NC(=O)[C@H](CC(C)C)NC(C)=O)C(=O)N[C@@H](CCCNC(=N)N)C(=O)N[C@@H](CC(C)C)C(=O)N[C@@H](CCCNC(=N)N)C(=O)N[C@@H](Cc1ccc(O)cc1)C(=O)N1CCC[C@H]1C(=O)N[C@H](C(=O)NCCCCCCC(N)=O)C(C)C [Compound (I-4), CH3CO-Leu-Tyr-Arg-Lys-Met-Arg-Leu-Arg-Tyr-Pro-Val-NH-(CH2)6CONH2] (Ac-LYRKMRLRYPV[Ahp]-NH2)		129 (≈ 77.6 µM)	129 (≈ 77.6 µM)	129 (≈ 77.6 µM)	inhibition at 120 µM (PLC-γ1; Concentration 120 µM (aqueous solution of test peptide provided for the test)): 89%; Inhibition rate (%) (KMS-4 cells; Concentration 25 µM): 47%
CSCC[C@H](NC(=O)[C@H](CCCCN)NC(=O)[C@H](CCCNC(=N)N)NC(=O)[C@H](Cc1ccc(O)cc1)NC(=O)[C@H](CC(C)C)NC(C)=O)C(=O)N[C@@H](CCCNC(=N)N)C(=O)N[C@@H](CC(C)C)C(=O)N[C@@H](CCCNC(=N)N)C(=O)N[C@@H](Cc1ccc(O)cc1)C(=O)N1CCC[C@H]1C(=O)N[C@H](C(=O)NCCCCCCCC(N)=O)C(C)C [Compound (I-5), CH3CO-Leu-Tyr-Arg-Lys-Met-Arg-Leu-Arg-Tyr-Pro-Val-NH-(CH2)7CONH2] (Ac-LYRKMRLRYPV[Aoc]-NH2)	70		163 (≈ 97.2 µM)	81 (≈ 48.3 µM)	inhibition at 119 µM (PLC-γ1; Concentration 119 µM (aqueous solution of test peptide provided for the test)): 83%
CSCC[C@H](NC(=O)[C@H](CCCCN)NC(=O)[C@H](CCCNC(=N)N)NC(=O)[C@H](Cc1ccc(O)cc1)NC(=O)[C@H](CC(C)C)NC(C)=O)C(=O)N[C@@H](CCCNC(=N)N)C(=O)N[C@@H](CC(C)C)C(=O)N[C@@H](CCCNC(=N)N)C(=O)N[C@@H](Cc1ccc(O)cc1)C(=O)N1CCC[C@H]1C(=O)N[C@H](C(=O)NCCCCCCCCCCCC(N)=O)C(C)C [Compound (I-7), CH3CO-Leu-Tyr-Arg-Lys-Met-Arg-Leu-Arg-Tyr-Pro-Val-NH-(CH2)11CONH2] (Ac-LYRKMRLRYPV[12Ado]-NH2)	39		150 (≈ 86.5 µM)		inhibition at 114 µM (PLC-γ1; Concentration 114 µM (aqueous solution of test peptide provided for the test)): 82%
CCCCCCCCCCCCCCCCCC(=O)N[C@@H](CC(C)C)C(=O)N[C@@H](Cc1ccc(O)cc1)C(=O)N[C@@H](CCCNC(=N)N)C(=O)N[C@@H](CCCCN)C(=O)N[C@@H](CCSC)C(=O)N[C@@H](CCCNC(=N)N)C(=O)N[C@@H](CC(C)C)C(=O)N[C@@H](CCCNC(=N)N)C(=O)N[C@@H](Cc1ccc(O)cc1)C(=O)N1CCC[C@H]1C(=O)N[C@H](C(=O)NCCCCCCCCCCCC(N)=O)C(C)C [Compound (I-8), C17H35CO-Leu-Tyr-Arg-Lys-Met-Arg-Leu-Arg-Tyr-Pro-Val-NH-(CH2)11CONH2] (Stearoyl-LYRKMRLRYPV[12Ado]-NH2)			106 (≈ 54.1 µM)		inhibition at 20 µM (PLC-γ1; Concentration 20 µM (aqueous solution of test peptide provided for the test)): 76%
